According to patent publication US5475032A, “2,4-disulfonyl phenyl butyl nitrone, its salts, and their use as pharmaceuticals” (Oklahoma Medical Research Foundation, priority 1995, dated 1995):
Read-outs that look alike come from different tables or passages of the source.

Experiments:
Sprague Dawley rats = assay: acute toxicity in male Sprague Dawley rats (Example 14); format: in vivo, rat; details: 1000 mg/kg i.p., after 3 days
Description: The compounds were administered at 1000 mg/kg, i.p., to groups of 6 rats. After 3 days lethality was assessed.

[1] = system: acute lethal effects of adriamycin; assay: adriamycin acute lethality and its prevention by pretreatment, DBA/2J mice (Example 13)
Description: All injections were intraperitoneal. The acute lethality of adriamycin ranged from 10 to 30 mg/kg.

[2] = system: neuronal loss following ischemia; assay: protection from neuronal loss, i.v. 60 min after reperfusion onset following 5 min ischemia (Example 5); format: in vivo, gerbil; details: for protection for neuronal loss (neuronal density): 60 min after reperfusion onset; for effect on neuronal density in control gerbils: control gerbils without brain injury
[3] = system: infarct volume following middle cerebral artery occlusion; assay: rat focal ischemia model, permanent middle cerebral artery occlusion (Example 12); format: in vivo, Sprague Dawley rats; details: both studies: 100 mg/kg i.p. then 4.2 mg/kg/hr i.v., or 10 mg/kg i.p. then 0.42 mg/kg/hr i.v., up to 24 h; 3 days post stroke
Text: A pair of studies were done to determine the efficacy of Compound I in a rat focal ischemia model. In this model, Sprague Dawley rats (200-300 g) underwent a permanent middle cerebral artery occlusion (MCAO) to induce a focal stroke.
The rats were sacrificed 3 days post stroke, the tissue was processed histologically using triphenyltetrazolium staining techniques, and the infarct volume, the area of total cell necrosis, was quantitated using image analysis.

[4] = system: infarct volume following middle cerebral occlusion; assay: infarct volume after middle cerebral occlusion (Example 7); format: in vivo, C57BL/6J mice; details: from 60 min after occlusion for 24 hours
Description: The ability of the compound of the invention to reduce infarct volume following an ischemic event was determined.

[5] = system: acute lethal effects of adriamycin; assay: adriamycin acute lethality and its prevention by pretreatment, C57BL/6J mice (Example 13); format: in vivo; details: up to 300 mg/kg i.p., without adriamycin
Text: (§1) All injections were intraperitoneal.

[6] = system: lethality from 10 min ischemia; assay: lethality protection in aged gerbils from 10 min ischemia (Example 8); format: in vivo, gerbil; details: 30 min before ischemia; for lethality protection: Compound I: at high levels
creatine kinase (CK) = assay: protection of creatine kinase against βAP 25-35 (Example 11); format: biochemical, gerbil; details: co-incubation with 0.4 mg/ml BAP 25-35
Description: (§2) Cytosolic fractions from gerbil neocortex were prepared and enzyme activities determined. Samples were incubated in the presence of different concentrations of the peptide for 10 min prior to assay. Solid symbols represent the effects of the naturally occurring 25-35 fragment. […] Each point is the mean (+/- s.e.) of 5 observations. βAP derived and other cellular sources of free radicals are an important determinant of the initiation and progression of AD.
(§3) Each point is the mean (+/- s.e.) of 3 observations.

[7] = system: acute lethal effects of adriamycin; assay: comparative tests: nitrone pretreatment combined with adriamycin (Example 13); format: in vivo, mouse
Text: as §1

[8] = system: neuron loss following brain ischemia and reperfusion injury; assay: neuronal density after 5 min bilateral carotid occlusion, compound i.p. 30 min before ischemia (Example 3); format: in vivo, gerbil; details: for Neuronal nuclei/100 micron field: 30 min before ischemia
Description: In the experiments a test compound was administered to groups of six gerbils i.p. as a single dose 30 min before 5 min bilateral carotid occlusion. The density of neuronal nuclei in a 100 micron was measured. Two controls were present--controls which received no test compound and controls which received no test compound and no brain ischemia.

[9] = doses demonstrated to be possible
[10] = body temperature depression (Example 10); format: in vivo; details: levels as high as 1000 mg/kg, mice and gerbils
Text: Another undesirable systemic effect which has been observed in vivo with nitrone radical traps is a depression in body temperature. This toxicity can have serious health consequences and also can complicate diagnosis of other conditions.

[11] = system: neuron loss following brain ischemia and reperfusion injury; assay: neuronal density, post-ischemia treatment, compound i.p. 30 min after reperfusion following 5 min ischemia (Example 4); format: in vivo, gerbil
solubility in water = format: physicochemical; details: free acid
[12] = system: glutamine synthetase (GS); assay: protection of glutamine synthetase against βAP 25-35 (Example 11); format: biochemical, gerbil; details: co-incubation with 0.4 mg/ml BAP 25-35
Description: as §2, §3

[13] = system: temporal/spatial short term memory following ischemia; assay: 8-arm radial maze test 24 hours after ischemia (Example 6); format: in vivo, gerbil; details: for error levels: high doses
Description: Brain injury can manifest itself as behavioral changes. In this experiment, young adult (3-4 months of age) gerbils were tested to determine their ability to perform an 8-arm maze test 24 hours following an ischemic event as described in Example 1. As compared to nonischemic animals, when untreated they committed many more errors. PBN and compound I were administered to some of the test animals.

severe trauma ischemia = details: in vivo; cited from earlier work
C57BL/6L mice = assay: acute lethality, single i.p. doses of nitrone (Example 9); format: in vivo, mouse; details: PBN at 560 mg/kg, Compound I at doses nearly twenty times as great
Description: As detailed in Table 7. acute lethality in C57BL/6L mice was determined based upon varying sizes of single i.p. doses of nitrone.

[14] = system: normal or uninjured cells; details: cited from earlier work
[15] = system: infarct volume following middle cerebral artery occlusion; details: cited from earlier work
[16] = comparative tests: nitrone pretreatment combined with adriamycin (Example 13); format: in vivo, mouse; details: mouse, in vivo, ip; 300 mg/kg with adriamycin; read-out: combined toxicity (lethality)
Text: as §1

CC(C)(C)[N+]([O-])=Cc1ccc(S(=O)(=O)O)cc1S(=O)(=O)O [Compound I]
lethality (Sprague Dawley rats): no lethality | maximally tolerated dose of adriamycin in combination ([1]; combination with adriamycin): marked increase in the maximally tolerated dose | effect on survival ([1]; up to 300 mg/kg i.p., without adriamycin, DBA/2J): no effect on survival | protection for neuronal loss (neuronal density) ([2]; 0.5 mg/kg single dose i.v.): 1.25 | protection for neuronal loss (neuronal density) ([2]; 1.0 mg/kg single dose i.v.): 1.75 | protection for neuronal loss (neuronal density) ([2]; 10 mg/kg single dose i.v.): 2.43 | effect on neuronal density in control gerbils [2]: Neither PBN nor Compound I. had an effect on neuronal density | protection (infarct volume) [3]: approximately 70% | Infarct Volume ([4]; 1.0 mg/kg/hr i.v.): 16.8 mm^3 | Infarct Volume ([4]; 10 mg/kg/hr i.v.): 12.7 mm^3 | Infarct Volume ([4]; 100 mg/kg/hr i.v.): 8.3 mm^3 | effect on survival [5]: no effect on survival | lethality protection (% survived) ([6]; 10 mg/kg): 50% | lethality protection (% survived) ([6]; 32 mg/kg): 75% | lethality protection (% survived) ([6]; 100 mg/kg): 100% | lethality protection (% survived) ([6]; 320 mg/kg): 100% | lethality protection [6]: complete protection | protection of CK against the effects of βAP fragments (creatine kinase (CK)): complete protection | combined toxicity ([7]; doses of Compound I up to 300 mg/kg with adriamycin): did not produce any combined toxicity | Neuronal nuclei/100 micron field ([8]; 3.2 mg/kg i.p.): 1.43 Neuronal nuclei/100 micron field | Neuronal nuclei/100 micron field ([8]; 10 mg/kg i.p.): 2.57 Neuronal nuclei/100 micron field | Neuronal nuclei/100 micron field ([8]; 32 mg/kg i.p.): 3.53 Neuronal nuclei/100 micron field | Neuronal nuclei/100 micron field ([8]; 50 mg/kg i.p.): 4.11 Neuronal nuclei/100 micron field | Neuronal nuclei/100 micron field ([8]; 100 mg/kg i.p.): 4.18 Neuronal nuclei/100 micron field | Neuronal nuclei/100 micron field ([8]; 320 mg/kg i.p.): 4.23 Neuronal nuclei/100 micron field | Neuronal nuclei/100 micron field ([8]; 1000 mg/kg i.p.): 4.11 Neuronal nuclei/100 micron field | Neuronal nuclei/100 micron field ([8]; 3200 mg/kg i.p.): 4.18 Neuronal nuclei/100 micron field | protection against neuronal loss ([8]; high dose levels): complete protection against neuronal loss | dose demonstrated to be possible ([9]; up to and higher): ≥ 1000 mg/kg/h | temperature decrease [10]: no measurable temperature decrease | Neuronal nuclei/100 micron field ([11]; 32 mg/kg i.p.): 1.83 Neuronal nuclei/100 micron field | Neuronal nuclei/100 micron field ([11]; 50 mg/kg i.p.): 2.73 Neuronal nuclei/100 micron field | Neuronal nuclei/100 micron field ([11]; 100 mg/kg i.p.): 3.41 Neuronal nuclei/100 micron field | Neuronal nuclei/100 micron field ([11]; 320 mg/kg i.p.): 3.55 Neuronal nuclei/100 micron field | Neuronal nuclei/100 micron field ([11]; 1000 mg/kg i.p.): 3.68 Neuronal nuclei/100 micron field | solubility (solubility in water): > 1000 mg/mL | protection of GS against the effects of βAP fragments [12]: complete protection | errors in 8-arm radial maze ([13]; 1.0 mg/kg/hr for 24 hours): 14.63 errors | errors in 8-arm radial maze ([13]; 32 mg/kg/hr for 24 hours): 7.19 errors | errors in 8-arm radial maze ([13]; 50 mg/kg/hr for 24 hours): 4.28 errors | errors in 8-arm radial maze ([13]; 100 mg/kg/hr for 24 hours): 4.11 errors | error levels [13]: error levels indistinguishable from those of nonischemic animals

CC(C)(C)[N+]([O-])=Cc1ccccc1 [PBN, Alpha-phenyl tert butyl nitrone]
survival of treated animals vs controls (severe trauma ischemia): more likely to survive than controls | toxicity (C57BL/6L mice): significant toxicity | protection for neuronal loss (neuronal density) ([2]; 0.5 mg/kg single dose i.v.): 0.83 | protection for neuronal loss (neuronal density) ([2]; 1.0 mg/kg single dose i.v.): 1.07 | protection for neuronal loss (neuronal density) ([2]; 10 mg/kg single dose i.v.): 1.23 | effect on neuronal density in control gerbils [2]: Neither PBN nor Compound I. had an effect on neuronal density | effect on normal or uninjured cells [14]: no measurable effect on normal or uninjured cells | Infarct Volume ([4]; 1.0 mg/kg/hr i.v.): 17.7 mm^3 | Infarct Volume ([4]; 10 mg/kg/hr i.v.): 13.8 mm^3 | Infarct Volume ([4]; 100 mg/kg/hr i.v.): Toxic | lethality protection (% survived) ([6]; 10 mg/kg): 42% | lethality protection (% survived) ([6]; 32 mg/kg): 50% | lethality protection (% survived) ([6]; 100 mg/kg): 75% | lethality protection (% survived) ([6]; 320 mg/kg): 92% | lethality protection [6]: only partially effective | infarct volume reduction ([15]; 100 mg/kg i.p. at 0.5, 5, 17, 29 and 41 hours post stroke): approximately 50% | infarct volume reduction ([15]; 100 mg/kg i.p. at 5, 17, 29, and 41 hours post stroke): approximately 50% | protection of CK against the effects of βAP fragments (creatine kinase (CK)): asymptotically leveling out at a substantially incomplete level of protection | mortality [16]: 10 to 20% | sedation ([7]; 100 mg/kg): slight sedation | sedation ([7]; 300 mg/kg): marked sedation | Neuronal nuclei/100 micron field ([8]; 3.2 mg/kg i.p.): 0.43 Neuronal nuclei/100 micron field | Neuronal nuclei/100 micron field ([8]; 10 mg/kg i.p.): 1.13 Neuronal nuclei/100 micron field | Neuronal nuclei/100 micron field ([8]; 32 mg/kg i.p.): 1.83 Neuronal nuclei/100 micron field | Neuronal nuclei/100 micron field ([8]; 50 mg/kg i.p.): 3.11 Neuronal nuclei/100 micron field | Neuronal nuclei/100 micron field ([8]; 100 mg/kg i.p.): 3.68 Neuronal nuclei/100 micron field | Neuronal nuclei/100 micron field ([8]; 320 mg/kg i.p.): 3.78 Neuronal nuclei/100 micron field | Neuronal nuclei/100 micron field ([8]; 1000 mg/kg i.p.): Toxic | Neuronal nuclei/100 micron field ([8]; 3200 mg/kg i.p.): Toxic | death or acute toxicity ([9]; up to 1000 mg/kg/hour and higher, or i.v. bolus 10 to 2500 mg/kg): death or acute toxicity | Neuronal nuclei/100 micron field ([11]; 32 mg/kg i.p.): 1.09 Neuronal nuclei/100 micron field | Neuronal nuclei/100 micron field ([11]; 50 mg/kg i.p.): 1.85 Neuronal nuclei/100 micron field | Neuronal nuclei/100 micron field ([11]; 100 mg/kg i.p.): 2.11 Neuronal nuclei/100 micron field | Neuronal nuclei/100 micron field ([11]; 320 mg/kg i.p.): 2.25 Neuronal nuclei/100 micron field | Neuronal nuclei/100 micron field ([11]; 1000 mg/kg i.p.): Toxic | protection of GS against the effects of βAP fragments [12]: asymptotically leveling out at a substantially incomplete level of protection | errors in 8-arm radial maze ([13]; 1.0 mg/kg/hr for 24 hours): 29.8 errors | errors in 8-arm radial maze ([13]; 32 mg/kg/hr for 24 hours): 18.19 errors | errors in 8-arm radial maze ([13]; 50 mg/kg/hr for 24 hours): 6.23 errors | errors in 8-arm radial maze ([13]; 100 mg/kg/hr for 24 hours): 5.83 errors | error levels [13]: less effective
